Assay in all cases: NCI anticancer screen, dose series, 48 h
In assay [1] the test system is 786-0 renal.
Assay [2] relates to IGROV1 ovarian.
For assay [3], the system named is KM12 colon.
Assay [4] concerns MDA-MB-231 breast.
Assay [5] relates to OVCAR-3 ovarian.
Assay [6] has as its system OVCAR-5 ovarian.
The subject of assay [7] is SK-MEL-5 melanoma.
Assay [8] relates to SK-OV-3 ovarian.
Assay [9] concerns SNB-75 CNS.
For assay [10], the system named is HCC-2998 colon.

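Step 1: Grow cells in 96-well plates. Step 2: Expose to compound for 48 hours at 5 concentrations. Step 3: Interpolate endpoints linearly; if unreached, use highest concentration. GI50: concentration for 50% inhibition of growth. TGI denotes the concentration required for complete inhibition of growth.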

Regarding `Cc1cc(S(=O)(=O)Nc2nc3ccccc3o2)c(SCc2ccccc2)cc1Cl`, the GI50 was 20.8 µM in [1]; 48.9 µM in [2]; 18.4 µM in [3]; 35.9 µM in assay [4]; 16.7 µM in [5]; 20.3 µM in assay [6]. In addition, the GI50 in assay [7] was 16.7 µM; in [8], 34.3 µM; in assay [9] it was 38.6 µM. The TGI in assay [1] is 47.2 µM; in assay [2], above 100 µM; in assay [3], 43.4 µM; in assay [4], 90.5 µM; in assay [5] it was 42.1 µM; in [6], 46.1 µM. Further, the TGI is 33.4 µM in assay [7], above 100 µM in assay [8] and 90.8 µM in [9].
`COc1ccc(C(c2cc(OC)c(OC)c(OC)c2)n2ccnc2)cc1O` (stereo unspecified): the GI50 in [1] was 0.369 µM; in assay [10], 1.72 µM; in assay [2], 0.862 µM; in assay [3], 0.389 µM; in assay [4], 0.664 µM; in assay [5], 0.264 µM. For the same molecule, the values for the GI50 in assay [6], in assay [7] and in assay [8] were 0.648 µM, 0.367 µM and 0.465 µM, respectively. Also, the TGI in assay [1] was above 100 µM; in [10], above 100 µM; in [2] it was above 100 µM; in assay [3], above 100 µM; in assay [4], above 100 µM; in assay [5], 0.857 µM. In addition, the TGI was above 100 µM in [6], 3.18 µM in assay [7] and above 100 µM in assay [8].
As to `COc1cc(Nc2nc3cc(N)cc(N)c3nc2-c2ccccc2)cc(OC)c1OC`, the GI50 in assay [1] is 14.6 µM; in [2], 15.7 µM; in assay [3], 10.6 µM; in assay [4], 11.1 µM; in assay [5] it was 14.2 µM; in assay [6] it was 21.3 µM. The GI50 in assay [7] is 13 µM; in assay [8], 23 µM. Further, the TGI is 40.3 µM in assay [1]; 58.2 µM in assay [2]; 29.5 µM in assay [3]; 29.2 µM in [4]; 37.1 µM in assay [5]; 46.7 µM in [6]. Moreover, the TGI in assay [7] amounted to 27.8 µM; in [8] it was 57.8 µM.
For `Cc1nc([P+](c2ccccc2)(c2ccccc2)c2ccccc2)c(Sc2sc(-c3ccccc3)nc2[P+](c2ccccc2)(c2ccccc2)c2ccccc2)o1`, the GI50 in assay [1] is 2.34 µM; in [10], 2 µM; in assay [2] it was 1.4 µM; in assay [3], 1.39 µM; in [4], 1.86 µM; in assay [5] it was 0.76 µM. Moreover, the GI50 in assay [6] is 2.29 µM; in assay [7] it was 1.48 µM; in assay [9], 1.11 µM. Besides, the TGI in [1] is 11.2 µM; in assay [10], 6.22 µM; in assay [2], 4.83 µM; in assay [3], 3.35 µM; in assay [4], 6.27 µM; in assay [5], 3.29 µM. The TGI in [6] came out at 8.53 µM; in [7], 2.85 µM; in assay [9], 4.31 µM.
With `CC1=Nc2ccccc2S/C1=C(/C)NNS(=O)(=O)c1ccc(C)cc1`, the TGI in assay [1], in assay [10], in assay [2], in assay [3], in [5] and in [6] was above 100 µM throughout. Also, the TGI in assay [7], in [8] and in assay [9] was above 100 µM each time.
Consider `CCOC(=O)/C(=C/N1CCN(C(=O)c2ccco2)C1=S)C(=O)c1ccccc1`, for which the GI50 in assay [1] was 12.9 µM; in assay [2], above 50 µM; in assay [3] it was 10.1 µM; in [4], 10.8 µM; in [5], 20.2 µM; in assay [7], below 0.005 µM. The figures for the GI50 in [8] and in [9] were 20 µM and 46 µM, respectively. The TGI is 45.2 µM in assay [1]; above 50 µM in assay [2]; above 50 µM in [3]; 33.2 µM in assay [4]; above 50 µM in assay [5]; below 0.005 µM in assay [7]. Also, the TGI in assay [8] and in [9] was above 50 µM each time.
For `N.N.N.N.N.[Co+3].[I-].[N-]=[N+]=[N-]`, the GI50 in assay [1], in assay [10], in assay [2], in assay [3], in assay [5] and in assay [6] was above 100 µM in each case. The GI50 in assay [7] is above 100 µM; in [8], above 100 µM; in assay [9], 76.9 µM. The TGI in assay [1], in assay [10], in assay [2], in assay [3], in [5] and in [6] was above 100 µM in each case. Moreover, the TGI in assay [7], in assay [8] and in [9] was above 100 µM each time.
Turning to `N#Cc1c(-c2ccc(Cl)c(Cl)c2)c(-c2ccc(Cl)c(Cl)c2)nn(CC(=O)O)c1=O`, the TGI is above 100 µM in assay [1]; above 100 µM in assay [10]; above 100 µM in assay [2]; above 100 µM in [3]; 77.4 µM in assay [5]; above 100 µM in [6]. In addition, the TGI in assay [7], in [8] and in assay [9] was above 100 µM throughout.
Take `c1cc(NNc2cccc(-c3nn[nH]n3)c2)cc(-c2nn[nH]n2)c1`: the TGI in assay [1], in [2], in assay [3], in [4], in assay [5] and in [6] was above 100 µM throughout. Also, the TGI in assay [7], in [8] and in assay [9] was above 100 µM in each case.
